Data set [1] deals with hepatocytes. Put plainly: Growth factor dependent proliferation of primary hepatocytes of MERMUC-Tg and non-Tg mice. In kind it is cell-based, mouse. To be noted: 24 hr. The protocol:
Primary cell culture of hepatocytes from liver cells obtained from the liver of each of the MERMUC-Tg mice (8 weeks old, 4 mice) and non-Tg mice (8 weeks old, 4 mice) was prepared by collagenase treatment according to the method of Berry and Friend, and Seglen et al. (Berry & Friend, J. Cell Biol., 1969, Vol. 43, p. 506-520; Seglen et al., Methods in Cell Biol., 1976, Vol. 13, p. 29-83).
Each of the obtained hepatocytes (2×10^3 cells) was cultured in serum-free media for 15 hr, HGF (0, 1 or 3 ng/ml) was added to the media to induce HGF-dependent cell proliferation, and was further cultured. Similarly, cultivation was performed by adding epidermal growth factor (EGF; 0, 1, or 10 ng/ml) in place of HGF to the culture as a control.
After 24 hr from HGF addition, cell numbers were counted using Cell Count Reagent SF (Nacalai tesque) according to the experimental protocol provided with the reagent to calculate the relative cell proliferation rate after HGF (or EGF) addition. Tests were conducted in triplicate.

Data set [2] deals with MERMUC. Put plainly: MERMUC protein phosphorylation in [32P]-labelled MERMUC/293 cells. The format is cell-based, human. To be noted: for phosphorylation of MERMUC upon growth factor stimulation: MERMUC overexpressing cells cultured without Dox, HGF 20ng/ml, 5 min. The protocol: After labeling the Tet-Off/MERMUC expressing recombinant cells (MERMUC/293 cells) produced above with (^32P] orthophosphate, the cells were stimulated with human recombinant HGF (20ng/ml; 5 min). Next, cell lysate was prepared by lysing cells according to conventional method. Anti-human MERMUC polyclonal antibody prepared as above (Example 2) was added to and reacted with the obtained cell lysate, bound to protein-G Sepharose, and then MERMUC protein and anti-MERMUC polyclonal antibody complex was precipitated by centrifugation.
The precipitate was extracted with 1% SDS and similar immunoprecipitation procedure was performed to reduce the background. The sample prepared by this procedure was separated by SDS-PAGE and analyzed by autoradiography.
Furthermore, MERMUC expression in the above mentioned recombinant cells was confirmed to be constant regardless of the presence or absence of HGF by Western blotting according to conventional method using anti-human MERMUC polyclonal antibody.
The following experiments were conducted similarly as described above: • 1) epidermal growth factor (EGF) was used in place of HGF; • 2) MERMUC expressing cells were treated with HGF signaling suppressor, PI3 kinase inhibitor (LY294002; 10 μM; CALBIOCHEM), before HGF stimulation; • 3) MERMUC expressing cells were treated with HGF signaling suppressor, MEK 1/2 inhibitor (U0126; 10 μM; CALBIOCHEM), before HGF stimulation; • 4) MERMUC expressing cells were treated with PI3 kinase inhibitor (LY294002; 10 μM) before EGF stimulation; and • 5) MERMUC expressing cells were treated with MEK 1/2 inhibitor (U0126; 10 μM) before EGF stimulation.

Data set [3] has as its system liver. Put plainly: HGF-dependent liver enlargement in MERMUC-Tg and non-Tg mice. The format is in vivo. To be noted: human HGF expression plasmid 28 μg/mouse into tail vein, two days. The text has this: It has been reported that HGF is transiently overexpressed in vivo by the injection of HGF expression plasmid DNA into the tail vein of normal mice, causing liver enlargement due to the enhancement of hepatocyte proliferation (Hepatology, 2001, Vol. 33, p848-859). Therefore, to validate the down-regulation activity of MERMUC on HGF receptor mediated signaling, the method in the above mentioned report was applied to MERMUC overexpressing transgenic mice (MERMUC-Tg; 7 weeks old; male; 23-33 g) produced in the previous Example, and the effect due to the expression of MERMUC on liver enlargement induced by HGF overexpression was examined. Human HGF expression plasmid (human HGF-cDNA in pcDNA3; Invitrogen) or plasmid pcDNA3 (mock) was injected into the tail vein of each of MERMUC-Tg mouse and littermate non-Tg mouse at a concentration of 28 μg/mouse (2.3 ml saline) within 5 to 10 seconds. The HGF level in serum of each of the mice was measured using a human HGF ELISA kit (Genzyme Techne) two days after the plasmid injection. The level of HGF production due to the administered plasmid in each animal was evaluated together with the changes in liver weight upon laparotomy.

Data set [4] deals with C-terminal region of human MERMUC (bait-2, bait-3). Put plainly: Yeast two hybrid screening of human kidney cDNA library with MERMUC baits. In kind it is binding. To be noted: bait-2 = 123 amino acid portion of the C-terminus of human MERMUC. The protocol:
Specifically, yeast two hybrid system (Proc. Natl. Acad. Sci. USA., 1991, Vol.88, p.9578-9582) was performed to screen a human kidney cDNA library using cDNA corresponding to the C-terminal region of the human MERMUC as the bait (that is, fishing bait).
Two kinds of bait (bait-2 and bait-3) were designed using each of Ex.-2 and Ex.-3 as the core. Bait-2 corresponds to a 123 amino acid portion of the C-terminus (bait-2) and bait-3 corresponds to the 65 C-terminal amino acids (bait-3).
Each bait vector was obtained by inserting each DNA fragment obtained by digesting each of the PCR products with the restriction enzymes EcoRI and SalI into the EcoRI/SalI site of pGBKT7 vector (leucine biosynthesis gene as a marker; CLONTECH). In yeast, the gene within the vector is produced as a fusion protein ([fusion protein A]) with the DNA binding region (GAL4-DB) of the yeast transcription factor GAL4.
On the other hand, each cDNA of the human kidney derived cDNA library (CLONTECH) that is used for the screening with the bait vector is inserted in pADK vector (tryptophan biosynthesis gene as a marker). Therefore, proteins produced through the expression of each of these cDNAs in yeast are produced as a fusion protein ([fusion protein B]) with the GAL4 transcriptional activation region (GAL4-AD). […]

C-terminal region of human MERMUC (bait-2, bait-3), sequence (Q8N307 587-709): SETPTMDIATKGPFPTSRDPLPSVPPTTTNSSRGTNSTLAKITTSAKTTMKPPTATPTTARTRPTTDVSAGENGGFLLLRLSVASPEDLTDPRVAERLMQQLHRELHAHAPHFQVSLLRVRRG

Turning to “EGF: epidermal growth factor, used as control in place of HGF”, the “EGF stimulated hepatocyte proliferation” value in data set [1] (MERMUC-Tg and non-Tg hepatocytes, EGF 0, 1 or 10 ng/ml) is “dosage-dependent cell proliferation”. The “phosphorylation of MERMUC upon growth factor stimulation” value in data set [2] is “did not show effect to increase phosphorylation of MERMUC”.
Consider “HGF: hepatocyte growth factor, ligand of c-Met; in b422 supplied by human HGF expression plasmid (human HGF-cDNA in pcDNA3)”, for which the “increase of the ratio of liver weight to body weight” value in data set [3] (MERMUC-Tg mice) is given as “about 1.2 times”; in data set [3] (non-Tg mice), “about 1.6 times”. The “proliferation due to HGF stimulation of hepatocytes” value in data set [1] (MERMUC-Tg derived hepatocytes compared with non-Tg, HGF 0, 1 or 3 ng/ml) is recorded as “significant decrease”. Besides, the “phosphorylation of MERMUC upon growth factor stimulation” value in data set [2] is given as “strong signal band”.
`N#CC(=C(/N)Sc1ccccc1N)/C(C#N)=C(/N)Sc1ccccc1N` [MEK 1/2 inhibitor, U0126, reference compound]: the “suppression of the enhancement of MERMUC phosphorylation” value in data set [2] (cells treated with inhibitor 10 μM before HGF stimulation) is recorded as “suppressed only in the cells treated with PI3 kinase inhibitor”.
As to “clone No. 2-211: prey protein: C-terminal 56 amino acids (amino acids 448-503 of SEQ ID NO: 10) of human MERMUC (VSAGENGGFLLLRLSVASPEDLTDPRVAERLMQQLHRELHAHAPHFQVSLLRVRRG; listed as Homo sapiens)”, the “binding ability to the protein derived from bait-2” value in data set [4] is “had binding ability”.

Source of the values: patent US20050113284A1, “Drug for regenerating tissue and vessel and method therefor” (priority 2001, published 2005).
